Data set [1] in a line: Stability of crystal forms under ambient conditions. The class given is physicochemical.
A short description of data set [2]: Solubility of the agent in hydrophilic and hydrophobic media. Particulars: hydrophilic and hydrophobic media (aqueous and oily media). The class given is physicochemical.
For data set [3], the system named is VEGF-induced extravasation. The data set is described as follows: Miles assay in domestic pigs. Type of data set: in vivo. On the procedure:
(§1) Vascular endothelial growth factors (VEGFs) have angiogenic and vascular permeability-promoting activities in vitro and in vivo. […] Young domestic pigs were used because pig skin is very similar to human skin in architecture and permeability for xenobiotics. Inhibition of dermal angiogenesis related to the agent of the invention was tested with an “matrigel” assay which was developed for studies in pigs; inhibition of vascular permeability in the skin with a modified Miles assay. With matrigel implants into which endothelial cells immigrate to form new vessels anti-angiogenic effects of applied test articles can be assessed in vivo; with the Miles assay, extravasation of Evans blue-labeled albumin is measured after VEGF-induced vascular leakage.
Method: Test areas of 5×20 cm on both paramedian ventral abdominal sides of 16-18 kg weighing domestic pigs were topically treated with 1 ml of 0.8% 6-(6-hydroxymethyl-pyrimidin-4-yloxy)-naphthalene-1-carboxylic acid (3-trifluoromethyl-phenyl)-amide trice (30, 7 and 3 hrs prior to elicitation of vascular leakage with VEGF). […] Evans blue was extracted from the biopsies with 0.5 ml formamide and the concentration of Evans blue in the supernatants was measured photometrically. […]

Another data set has as its system dermal angiogenesis. The data set is described as follows: Matrigel assay in domestic pigs. Type of data set: in vivo. On the procedure: as §1
Method: Test areas on both paramedian ventral abdominal sides of 16-18 kg weighing domestic pigs were topically treated with 0.5% 6-(6-hydroxymethyl-pyrimidin-4-yloxy)-naphthalene-1-carboxylic acid (3-trifluoromethyl-phenyl)-amide or the vehicle (ethanol/propylene glycol 3/7) alone. Treatment was performed twice daily on days 1-4. On day 2, 100 μl matrigel, loaded with the angiogenic factors […] VEGF-165 and 40 U/ml heparin were injected intradermally at 10 different sites of the treated areas. On day 5, the animals were sacrificed and 8 mm punches from the injection sites collected, the subcutaneous fatty tissue removed, the hemorrhagic plugs carefully dissected and weighed. Thereafter, the samples were digested with dispase and single cell suspensions prepared. The isolated cells were stained with the endothelial cell marker CD31 or isotype controls and analyzed with FACS after gating for endothelial cells.

[4] abbreviates: 0.5% in ethanol:propylene glycol 3/7, topical twice daily days 1-4, plugs excised day 5.

From US20110112121A1, “Pharmaceutical Compositions and Solid Forms” (priority 2009, published 2011) come the findings set out here.

Values joined by “and” are separate entries in the source; they are usually repeats but may differ in a detail not shown here. Equal entries are not always repeated.

For `O.O=C(Nc1cccc(C(F)(F)F)c1)c1cccc2cc(Oc3cc(CO)ncn3)ccc12.O=C(Nc1cccc(C(F)(F)F)c1)c1cccc2cc(Oc3cc(CO)ncn3)ccc12` [Crystal form B, 6-(6-Hydroxymethyl-pyrimidin-4-yloxy)-naphthalene-1-carboxylic acid (3-trifluoromethyl-phenyl)-amide hemihydrate, modification B], the “stability of the modification (in words)” value in data set [1] is “particularly stable modification”.
Consider `O=C(Nc1cccc(C(F)(F)F)c1)c1cccc2cc(Oc3cc(CO)ncn3)ccc12` [agent of the invention, 6-(6-hydroxymethyl-pyrimidin-4-yloxy)-naphthalene-1-carboxylic acid (3-trifluoromethyl-phenyl)-amide], for which, in data set [2], the “solubility properties (in words)” value is reported as “very poor solubility properties”. Moreover, in data set [3] (0.8% agent topically 30, 7 and 3 hrs before VEGF 165, vs placebo), the “inhibition of VEGF-induced extravasation” value is 24%. The “Evans blue concentration (μg/ml tissue extract)” value in data set [3] (0.8% agent, 1 ml topically 30, 7 and 3 hrs before VEGF 165 injection, biopsies 30 min after challenge) is 1.26 (0.13)++ μg/ml tissue extract. The “difference in CD31+ cell number vs vehicle-treated sites” value with dermal angiogenesis (0.5% epicutaneously, gated on endothelial cells) is 66%. Besides, in the data set with dermal angiogenesis (0.5% epicutaneously, vs vehicle), the “plug weight less than vehicle-treated sites” value is 19%. In addition, in the data set with dermal angiogenesis (setting [4]), the “Cell counts (CD31+)/μl, gated on endothelial cells” value was found to be 353 µL⁻¹; the “Weight (mg) of excised plugs” value is 88 mg and 87.8 mg.
